Experimental data published in PMC9228656 (Toxins, 2022).
Like-named read-outs stand apart in the source and are kept apart here.

Legend:
[1] = test system: Salmonella typhimurium 1535/pSK1002
[2] = test system: Salmonella tester strains; conditions: cited from earlier work
[3] = test system: Salmonella typhimurium 1535/pSK1002; remark: listed apart in the source
[4] = test system: Escherichia coli PQ37; conditions: cited from earlier work
[5] = test system: Salmonella typhimurium 1535/pSK1002; remark: listed apart in the source
[6] = test system: 1535, 1538 and 98 strains; conditions: cited from earlier work
[7] = test system: Escherichia coli; conditions: cited from earlier work

Compound	mutagenic activity in the Ames test [2]	experiments with IF values above two [3]	genotoxicity result in the SOS/umu test [1]	genotoxicity result in the SOS/umu test [5]	genotoxicity result in the SOS/umu test [3]	other results
Nc1ccc2cc3ccccc3cc2c1 [2AA, 2-aminoanthracene, reference compound]						experiments in which the compound was genotoxic [1]: eight out of eight experiments; induction factor (IF) reached ([1]; Salmonella typhimurium): around 4
CC(=O)O[C@@H]1C[C@]2(C)[C@@]3(CO)[C@H](O)C(=O)C(C)=C[C@H]3O[C@H]1[C@@]21CO1 [3ADON, 3-acetyldeoxynivalenol]	mutagenic activity was not found	three out of four experiments				
CC(=O)OC[C@]12[C@H](O)C(=O)C(C)=C[C@H]1O[C@@H]1[C@H](O)C[C@@]2(C)[C@]12CO2 [15ADON, 15-acetyldeoxynivalenol]		two out of four experiments				
CC1=C[C@H]2O[C@@H]3[C@H](O)C[C@](C)([C@@]2(CO)[C@H](O)C1=O)[C@]31CO1 [DON, deoxynivalenol]	mutagenic activity was not found		negative (key: IF values above or equal to two were considered as positive when the bacterial survival is above 80%; IF values below 1.5 were considered negative; IF among 2 and 1.5 were considered equivocal)	negative (key: IF values above or equal to two were considered as positive when the bacterial survival is above 80%; IF values below 1.5 were considered negative; IF among 2 and 1.5 were considered equivocal)	negative (key: IF values above or equal to two were considered as positive when the bacterial survival is above 80%; IF values below 1.5 were considered negative; IF among 2 and 1.5 were considered equivocal)	genotoxicity in the SOS chromotest [4]: negative; highest IF value obtained ([3]; Salmonella typhimurium): 1.94
CC(=O)O[C@@H]1[C@@H](O)[C@H]2O[C@@H]3C=C(C)C(=O)[C@@H](O)[C@]3(CO)[C@]1(C)[C@]21CO1 [F-X, fusarenon-X]	mutagenic activity was not found		negative (key: IF values above or equal to two were considered as positive when the bacterial survival is above 80%; IF values below 1.5 were considered negative; IF among 2 and 1.5 were considered equivocal)	negative (key: IF values above or equal to two were considered as positive when the bacterial survival is above 80%; IF values below 1.5 were considered negative; IF among 2 and 1.5 were considered equivocal)	negative (key: IF values above or equal to two were considered as positive when the bacterial survival is above 80%; IF values below 1.5 were considered negative; IF among 2 and 1.5 were considered equivocal)	highest IF value obtained [3]: 1.88
CCCC[C@@H](C)[C@@H](OC(=O)C[C@@H](CC(=O)O)C(=O)O)[C@H](C[C@@H](C)C[C@H](O)CCCC[C@@H](O)C[C@H](O)[C@H](C)N)OC(=O)C[C@@H](CC(=O)O)C(=O)O [FB1, fumonisin B1]			negative (key: IF values above or equal to two were considered as positive when the bacterial survival is above 80%; IF values below 1.5 were considered negative; IF among 2 and 1.5 were considered equivocal)	negative (key: IF values above or equal to two were considered as positive when the bacterial survival is above 80%; IF values below 1.5 were considered negative; IF among 2 and 1.5 were considered equivocal)	negative (key: IF values above or equal to two were considered as positive when the bacterial survival is above 80%; IF values below 1.5 were considered negative; IF among 2 and 1.5 were considered equivocal)	mutagenic potential in the Ames test [2]: negative; genotoxicity in the SOS chromotest [4]: negative; IF value reached [3]: 1.99
CC(=O)OC[C@]12C[C@H](OC(=O)CC(C)C)C(C)=C[C@H]1O[C@@H]1[C@H](O)[C@@H](O)[C@@]2(C)[C@]12CO2 [HT-2, HT-2 toxin]		two out of four experiments				
C[C@@H]1Cc2c(Cl)cc(C(=O)N[C@@H](Cc3ccccc3)C(=O)O)c(O)c2C(=O)O1 [OTA, ochratoxin A]			negative (key: IF values above or equal to two were considered as positive when the bacterial survival is above 80%; IF values below 1.5 were considered negative; IF among 2 and 1.5 were considered equivocal)	negative (key: IF values above or equal to two were considered as positive when the bacterial survival is above 80%; IF values below 1.5 were considered negative; IF among 2 and 1.5 were considered equivocal)	negative (key: IF values above or equal to two were considered as positive when the bacterial survival is above 80%; IF values below 1.5 were considered negative; IF among 2 and 1.5 were considered equivocal)	mutagenic response in the Ames test [2]: negative; mutagenicity with Salmonella tester strains [2]: consistently negative; mutagenicity in the Ames test [6]: mutagenic; SOS repair activity in SOS chromotest [4]: induced SOS repair activity; response in SOS chromotest [4]: weak response
COc1cc2c(c3oc4cccc(O)c4c(=O)c13)[C@@H]1C=CO[C@@H]1O2 [STER, sterigmatocystin]		one out of four experiments				induction factor (IF) [1]: greater than two
CC(=O)OC[C@]12C[C@H](OC(=O)CC(C)C)C(C)=C[C@H]1O[C@@H]1[C@H](O)[C@@H](OC(C)=O)[C@@]2(C)[C@]12CO2 [T-2, T-2 toxin]	mutagenic activity was not found	three out of four experiments				
C[C@H]1CCCC(=O)CCC/C=C/c2cc(O)cc(O)c2C(=O)O1 [ZEA, zearalenone]			negative (key: IF values above or equal to two were considered as positive when the bacterial survival is above 80%; IF values below 1.5 were considered negative; IF among 2 and 1.5 were considered equivocal)	negative (key: IF values above or equal to two were considered as positive when the bacterial survival is above 80%; IF values below 1.5 were considered negative; IF among 2 and 1.5 were considered equivocal)	negative (key: IF values above or equal to two were considered as positive when the bacterial survival is above 80%; IF values below 1.5 were considered negative; IF among 2 and 1.5 were considered equivocal)	result in the Ames test [2]: negative; genotoxic concentration (induction of SOS repair) [7]: 1.5 mM; IC50 ([7]; read-out: IC50 (toxicity)): 1.45 mM
aflatoxin B1 [AFB1]						mutagenicity with metabolic activation relative to without bioactivation [2]: 1000 times
